Reference: patent US9949992B2, “Bisphosphonate compositions and methods for treating and\or reducing cardiac dysfunction” (DUKE UNIVERSITY, priority 2011, dated 2018)

What was measured:
[1] = Hydroxyapatite (HAP) affinity by chromatographic profiling on HAP column; type: binding; conditions: phosphate gradient 1 mM to 1000 mM, pH 6.8
[2] = molecular target: T1, human farnesyl pyrophosphate synthase (FPPS) (Homo sapiens, UniProt P14324); experiment: FPPS inhibition, in vitro, recombinant enzyme; type: biochemical; conditions: GPP and IPP 10 μM each, 37° C., read-out: FFPPS nM IC50
T1 construct: made in house
T1 sequence (P14324 67-419 limits assumed): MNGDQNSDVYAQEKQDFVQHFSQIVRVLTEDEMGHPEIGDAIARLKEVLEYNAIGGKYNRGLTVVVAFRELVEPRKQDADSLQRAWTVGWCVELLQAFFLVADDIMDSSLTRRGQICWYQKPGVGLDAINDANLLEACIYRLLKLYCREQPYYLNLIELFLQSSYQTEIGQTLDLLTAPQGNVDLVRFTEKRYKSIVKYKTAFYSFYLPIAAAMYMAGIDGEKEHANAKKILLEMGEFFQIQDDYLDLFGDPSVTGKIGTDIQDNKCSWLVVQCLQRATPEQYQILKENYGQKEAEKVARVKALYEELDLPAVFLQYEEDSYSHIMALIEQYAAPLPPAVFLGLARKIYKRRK

ERK = experiment: Expression and activation (phosphorylation) of ERK in myocardial tissue, SHAM or TAC mice, immunoblot and densitometry; type: in vivo, mouse

Compound: CCCCCN(C)CCC(O)(P(=O)(O)O)P(=O)(O)O [Ibandronate]
- HAP mineral binding (retention time in mins) [1]: ~11 min

Compound: O=P(O)(O)C(O)(Cc1cnc2ccccn12)P(=O)(O)O [Minodronate]
- HAP mineral binding (retention time in mins) [1]: 10.33 min

Compound: O=P(O)(O)C(F)(Cc1cnc2ccccn12)P(=O)(O)O [Ox-14, 1-fluoro-2-(imidazo-[1,2-a]pyridine-3-yl)-ethyl-bisphosphonic acid]
- HAP mineral binding (retention time in mins) [1]: 6.17 min
- IC50 [2]: 2.5 nM
- level of expression of ERK (ERK; SHAM animals, FIG. 1, myocardial lysate, subcutaneous dosing): did not change
- phosphorylation of ERK (ERK; SHAM animals, FIG. 1 and FIG. 2, myocardial lysate): not as evident
- pERK/tERK ratio, fold increase (ERK; SHAM group, with respect to saline treated SHAM animals, FIG. 3): ~3 fold
- level of phosphorylation of ERK (ERK; TAC conditioned animals, FIG. 2): substantial increase
- pERK/tERK ratio, fold increase (ERK; TAC group relative to saline SHAM group, FIG. 3): ~5 fold
- pERK/tERK activity relative to zoledronic acid administered TAC group (ERK; TAC group, FIG. 3): about double

Compound: O=P(O)(O)C(O)(Cc1cccnc1)P(=O)(O)O [Risedronate]
- HAP mineral binding (retention time in mins) [1]: 9.97 min
